Like-named read-outs stand apart in the source and are kept apart here.
Assays:
Type in all cases: cell-based, human
A549 lung cancer cells = assay: MTS cell viability assay, A549; conditions: for EC50: read-out: EC50 (effective concentration that resulted in 50% cell viability)
Method: (§1) Human breast (HCC38, MCF-7, MDA-MB-231, SK-BR-3, T-47D, and ZR-75-1), lung (A549 and H520), and prostate (DU145 and PC-3) cancer cell lines were obtained from American Culture Type Collection (ATCC). The HCC38, MCF-7, MDA-MB-231, SK-BR-3, T-47D, ZR-75-1, and A549 cells were grown in MEM supplemented with 10% FBS, 25 mM HEPES buffer (pH 7.4), penicillin (100 U/mL), and streptomycin (100 μg/mL). The H520, DU145, and PC-3 cell lines were grown in RPMI-1640 supplemented with 10% FBS, 25 mM HEPES buffer (pH 7.4), penicillin (100 U/mL), and streptomycin (100 μg/mL). All cell lines were maintained at 37° C. in a humidified, 5% CO2 atmosphere.
(§2) Cells were cultured at a density of 2-3.5×10^3 cells per well in flat bottomed 96-well plates in 100 μL of complete growth medium and incubated for 2 days to reach ˜50% confluence. The cells were then treated with solvent or the appropriate drugs (CDDP stock was dissolved in 0.15 M NaCl, carboplatin stock was dissolved in 5% glucose, synthesized Pt(IV) complexes were dissolved in DMSO) for 1 hour, washed three times with 100 μL PBS, and incubated in 100 μL of fresh medium. After 2 days, the medium was replaced with 120 μL of medium containing CellTiter 96® Aqueous One Solution Reagent (MTS reagent) (Promega, Madison, Wis.). The cells were incubated at 37° C. for 4 hours and the cell viability was determined by measuring the absorbance at 490 nm using a Tecan Infinite M1000 microplate reader. The 48 h treatment was done in a similar manner, except the cells were not washed after treatment and the MTS reagent was immediately added. Viability of treated groups was calculated as a percent of control and graphed with GraphPad Prism.
(§3) The anti-proliferative activities of Pt(IV) complexes were determined in two lung (A549 and H520), two prostate (DU145 and PC-3), and six breast (HCC38, MCF-7, MDA-MB-231, SK-BR-3, T-47D, and ZR-75-1) cancer cell lines. The cells were treated with increasing concentrations of cisplatin (CDDP), carboplatin, or the Pt(IV) complexes for 1 or 48 hours, and the viability was measured using an MTS colorimetric cell proliferation assay. Graphs of the results are shown for DU145 (FIG. 8A), PC-3 (FIG. 8B), SK-BR-3 (FIG. 8C), ZR-75-1 (FIG. 8D), A549 (FIG. 8E), and MCF-7 (FIG. 8F).

H520 lung cancer cells = assay: MTS cell viability assay, H520; conditions: read-out: EC50 (effective concentration that resulted in 50% cell viability)
Method: as §1, §2, §3

[1] = system: DU145 prostate cancer cells; conditions: for effect on cell viability (in words): DU145, 1 hour treatment (FIG. 8A, top), up to 1 mM carboplatin, 100 μM Pt(IV)-1C, 50 μM Pt(IV)-2C; for EC50: read-out: EC50 (effective concentration that resulted in 50% cell viability)
Method: as §1, §2, §3
(§4) The anti-proliferative activities of certain Pt(II) complexes were determined in DU145, PC-3, and SK-BR-3 cells. The cells were treated with increasing concentrations of cisplatin (CDDP) or the Pt(II) complexes for 1 or 48 hours, and the viability was measured using an MTS colorimetric cell proliferation assay.

[2] = system: PC-3 prostate cancer cells; assay: MTS cell viability assay, PC-3; conditions: read-out: EC50 (effective concentration that resulted in 50% cell viability)
Method: as §1, §2, §3, §4

[3] = system: HCC38 breast cancer cells; assay: MTS cell viability assay, HCC38; conditions: read-out: EC50 (effective concentration that resulted in 50% cell viability)
Method: as §1, §2, §3

[4] = system: MCF-7 breast cancer cells; assay: MTS cell viability assay, MCF-7; conditions: for EC50: read-out: EC50 (effective concentration that resulted in 50% cell viability)
Method: as §1, §2, §3

[5] = system: MDA-MB-231 breast cancer cells; assay: MTS cell viability assay, MDA-MB-231; conditions: read-out: EC50 (effective concentration that resulted in 50% cell viability)
Method: as §1, §2, §3

[6] = system: SK-BR-3 breast cancer cells; assay: MTS cell viability assay, SK-BR-3; conditions: read-out: EC50 (effective concentration that resulted in 50% cell viability)
Method: as §1, §2, §3, §4

[7] = system: T-47D breast cancer cells; assay: MTS cell viability assay, T-47D
Method: as §1, §2, §3

[8] = system: ZR-75-1 breast cancer cells; assay: MTS cell viability assay, ZR-75-1; conditions: read-out: EC50 (effective concentration that resulted in 50% cell viability)
Method: as §1, §2, §3

[9] = MDA-MB-231, 1 h treatment, Table 3
[10] = SK-BR-3, 1 h treatment, Table 3
[11] = 1 h treatment, Table 3, read-out: EC50 (effective concentration that resulted in 50% cell viability)
[12] = 48 h, Table 5, read-out: EC50 (effective concentration that resulted in 50% cell viability)
[13] = ZR-75-1, 1 h treatment, Table 3

Row | SMILES | EC50 (A549 lung cancer cells; A549, 1 h treatment, Table 3) [µM] | EC50 (A549 lung cancer cells; A549, 48 h, Table 5) [µM] | EC50 (H520 lung cancer cells; H520, 1 h treatment, Table 3) [µM] | EC50 (H520 lung cancer cells; H520, 48 h, Table 5) [µM] | effect on cell viability (in words) [1] | EC50 ([1]; DU145, 1 h treatment, Table 3) [µM] | EC50 ([1]; DU145, 48 h, Table 5) [µM] | EC50 ([2]; PC-3, 1 h treatment, Table 3) [µM] | EC50 ([2]; PC-3, 48 h, Table 5) [µM] | EC50 ([3]; HCC38, 1 h treatment, Table 3) [µM] | EC50 ([3]; HCC38, 48 h, Table 5) [µM] | EC50 ([4]; MCF-7, 1 h treatment, Table 3) [µM] | EC50 ([4]; MCF-7, 48 h, Table 5) [µM] | EC50 [5, 9] [µM] | EC50 ([5]; MDA-MB-231, 48 h, Table 5) [µM] | EC50 [6, 10] [µM] | EC50 ([6]; SK-BR-3, 48 h, Table 5) [µM] | EC50 [7, 11] [µM] | EC50 [7, 12] [µM] | EC50 [8, 13] [µM] | also measured
1 | CC(=O)[O][Pt]([Cl])([Cl])[O]C(C)=O.CCCOc1ccnc(-c2cc(OCCC)ccn2)c1 [Pt(IV)-3C, [Pt(IV)Cl2(OAc)2(4,4′-dipropoxy-2,2′-bipyridine)]] | > 50 | 23 ± 1 | 80 ± 20 | 8 ± 6 | least effective among the five active compounds | 24 ± 7 | 1 ± 1 | 23 ± 0.3 | 1.1 ± 0.4 | 26 ± 6 | 8 ± 1 | > 100 | 29 ± 2 | 34 ± 7 | 6.1 ± 0.4 | 19 ± 2 | 0.9 ± 0.1 | 24 ± 3 | 0.59 ± 0.01 | 24 ± 3 | effect on cell viability (in words) (A549 lung cancer cells; A549, 1 hour treatment, at the concentrations tested (FIG. 8E)): did not have any effect; effect on cell viability (in words) ([4]; MCF-7, 1 hour treatment, at the concentrations tested (FIG. 8F)): did not have any effect; EC50 ([8]; ZR-75-1, 48 h, Table 5): 1.21 ± 0.04 µM
2 | CC(=O)[O][Pt]([Cl])([Cl])[O]C(C)=O.CCOc1ccnc(-c2cc(OCC)ccn2)c1 [Pt(IV)-2C, [Pt(IV)Cl2(OAc)2(4,4′-diethoxy-2,2′-bipyridine)]] | > 50 | > 50 | > 100 | 61 ± 2 | did not have any effects | > 50 | 10 ± 4 | > 50 | 20 ± 2 | 93 ± 10 | 30 ± 9 | > 100 | > 100 | > 100 | 28 ± 7 | 40 ± 10 | 8.3 ± 0.7 | 46 ± 8 | 0.95 ± 0.03 | > 50 | effect on cell viability (in words) (A549 lung cancer cells; A549, 48 hour treatment (FIG. 8E)): had no effect; effect on cell viability (in words) ([4]; MCF-7, 48 hour treatment (FIG. 8F)): had no effect; EC50 ([8]; ZR-75-1, 48 h, Table 5): 17 ± 7 µM
3 | CCOc1ccnc(-c2cc(OCC)ccn2)c1.[Cl][Pt][Cl] [Pt(II)-2C] | – | – | – | – | – | – | – | – | – | – | – | – | – | – | – | – | – | – | – | – | EC50 (A549 lung cancer cells; A549, 1 h treatment, Table 2): > 100 µM; EC50 (A549 lung cancer cells; A549, 48 h treatment, Table 4): 66 ± 7 µM; EC50 (H520 lung cancer cells; H520, 1 h treatment, Table 2): > 100 µM; EC50 (H520 lung cancer cells; H520, 48 h treatment, Table 4): 21 ± 1 µM; EC50 ([1]; DU145, 1 h treatment, Table 2): 20 ± 5 µM; EC50 ([1]; DU145, 48 h treatment, Table 4): 11 ± 4 µM; EC50 ([2]; PC-3, 1 h treatment, Table 2): 22 ± 5 µM; EC50 ([2]; PC-3, 48 h treatment, Table 4): 21 ± 7 µM; EC50 ([3]; HCC38, 1 h treatment, Table 2): 18 ± 4 µM; EC50 ([3]; HCC38, 48 h treatment, Table 4): 20 ± 3 µM; EC50 ([4]; MCF-7, 1 h treatment, Table 2): > 100 µM; EC50 ([4]; MCF-7, 48 h treatment, Table 4): > 100 µM; EC50 ([5]; MDA-MB-231, 1 h treatment, Table 2): 30 ± 20 µM; EC50 ([5]; MDA-MB-231, 48 h treatment, Table 4): 20 ± 6 µM; EC50 ([6]; SK-BR-3, 1 h treatment, Table 2): 2.2 ± 0.2 µM; EC50 ([6]; SK-BR-3, 48 h treatment, Table 4): 1.8 µM; EC50 ([7]; 1 h treatment, Table 2, read-out: EC50 (effective concentration that resulted in 50% cell viability)): 5 ± 2 µM; EC50 ([7]; 48 h treatment, Table 4, read-out: EC50 (effective concentration that resulted in 50% cell viability)): 2.2 ± 0.4 µM; EC50 ([8]; ZR-75-1, 1 h treatment, Table 2): 58 ± 15 µM; EC50 ([8]; ZR-75-1, 48 h treatment, Table 4): 16.5 µM

From patent publication US10316050B2, “PT (IV) complexes containing 4,4′-disubstituted-2,2′-bipyridyl and their use in cancer therapy” (THE BOARD OF REGENTS OF THE NEVADA SYSTEM OF HIGHER …, priority 2014, dated 2019)
